“Also recorded” adds a separate entry of the source.
Columns and labels:
CMV = settings: cited from earlier work
[1] = in vivo; cited from earlier work
[2] = test system: CD8+ T-cells, HLA-A*0201 positive T2 cells; settings: interferon-gamma ELIspot
HLA-A2 = HLA-A2 (Homo sapiens, UniProt P04439, D140Y/D185E/D98H/E176V/E277Q/G131W/G231S/I119V/I121R/I166T/I218V/L300P/L318F/N151K/N90K/P208A/P217A/Q86G/Q94H/R138H/R169H/T345S); settings: cited from earlier work
[3] = molecular target: T1, soluble DRB1*0401 molecules (DR4) (Homo sapiens, UniProt P01903+P01911, A100K/A169T/F76Y/I96L/K127E/L162R/M171V/N62H/P40V/Q125Y/R42H/S133A/S149N/S66Y/V115G/V209L/W38E); format: binding; parameters: key to DR4 binding: +++: high binding affinity; ++: moderate binding affinity; +: low binding affinity; −: no binding; settings: SDS-stability assay
T1 construct: Soluble HLA class I A*0201 and HLA class II DRA1*0101/DRB1*0101/Ii, DRA1*0101/DRB1*0401/Ii and DRA1*0101/DRB1*0404/Ii molecules were expressed in SC-2 cells; made in house; host or cells: SC-2 cells

[4] = molecular target: T2, soluble DRB1*0401 molecules (Homo sapiens, UniProt P01903+P01911, A100K/A169T/F76Y/I96L/K127E/L162R/M171V/N62H/P40V/Q125Y/R42H/S133A/S149N/S66Y/V115G/V209L/W38E); assay: Epitope capture from peptide mixtures, gel filtration and MALDI-TOF MS of bound peptides; format: binding
T2 construct: Soluble HLA class I A*0201 and HLA class II DRA1*0101/DRB1*0101/Ii, DRA1*0101/DRB1*0401/Ii and DRA1*0101/DRB1*0404/Ii molecules were expressed in SC-2 cells; made in house; host or cells: SC-2 cells
Description: After peptide binding reaction with soluble HLA molecules, HLA-peptide complexes were separated from free peptides by gel-filtration chromatography on Superdex-200 column (AKTAdesign, Amersham Pharmacia Biotech). HLA-containing fractions were collected, and bound peptides were reconstituted from the complexes by adding TFA to the final concentration of 1%. Peptides were desolted by Ziptip purification and analyzed by MALDI-TOF mass-spectrometry.
Second, the ability to capture peptides binding to HLA class II molecules from the mixture of two high affinity ligands was tested. The binding reaction contained 1 μM of soluble DRB1*0401 molecules and 5 μM of each YAR and 1242 peptide. After the HLA-peptide complexes were formed, they were separated from the excess of free peptides by gel filtration chromatography. Fractions containing MHC molecules were collected. Bound peptides were eluted from the complexes and analyzed by mass-spectrometry.
Third, it was investigated if the binding capacity of the high affinity ligand would be influenced by the excess of low affinity peptide. […] Peptide binding was assessed by SDS-stability assay and verified by MS analysis (FIG. 3).
The final concentration of each peptide in binding reaction was 5 μM, except 1236 added in 55 μM, meaning that the concentration of each individual binding peptide was 20-fold lower than final concentration of all peptides. DRB1*0401 molecules were added to 1 μM. The formation of MHC-peptide complexes was evaluated as described above, using single peptides as controls (FIG. 4). […] The result of this analysis yielded the two peptides with highest binding affinities: 1242 and YAR (see Table 1). The peptides with moderate and/or low affinities were not found in the complexes, probably due to the high concentration of strong competitors used in this assay.

isolated CD4+ T cells = assay: Synthetic IFN-γ Elispot assay with sHLA DRB1*0401 and anti CD28; format: cell-based, human; settings: sHLA DRB1*0401 loaded with peptide, vs negative control peptide p84 (FIG. 5a)
[5] = test system: CMV mutants resistant to Ganciclovir, Cidofuvir and Foscarnet; settings: cited from earlier work

In the case of `CC(C)[C@H](N)C(=O)OCC(CO)OCn1cnc2c(=O)nc(N)[nH]c21` (stereo partly drawn) [Valganciclovir], the “Incidence of CMV disease” value (CMV; kidney transplant patients, given for three months) is given as “reduced the incidence of CMV disease”, the “Proportion of patients with biopsy-proven rejection” value (CMV; six months after transplantation) is given as “significant reduction” and the Oral bioavailability [1] is given as “markedly increased”.

In the case of RLLQTGIHV, the “Confirmation as HLA-A*0201 epitope / induction of functional T-cells (in words)” value [2] is given as “induce functional T-cells” and the “Binding to HLA-A2 / stabilisation of HLA-A2/β2m/peptide complex” value (HLA-A2) is given as “can stabilize; also recorded: has been demonstrated”.

With YNINISLPSYYPDQKSL [Peptide 1242] the “Binding to soluble DRB1*0401 molecules (in words)” value [3] was “highest”, the DR4 binding ([3]; direct binding of individual peptides, compared with YAR and HA306-318) was “+++” and the “Formation of stable MHC-complexes in presence of excess low affinity peptide” value ([4]; 1242 5 to 50 μM, 100 μM peptide 1236 (2-20 fold excess), 1 μM DRB1*0401) was “does not impede the formation of stable MHC-complexes”. For the same compound, the “Peptides captured from pool of 10 peptides, MS analysis” value ([4]; each peptide 5 μM, 1236 55 μM, DRB1*0401 1 μM) was “captured by DR4 molecules”, the “Peptides found in complexes with MHC molecules by MS” value ([4]; mixture of two ligands, 5 μM each, 1 μM DRB1*0401) was “revealed in the complexes with MHC molecules” and the “Number of induced IFN-γ spots” value (isolated CD4+ T cells) was “significantly above the spontaneous IFN-γ secretion”.

For Fomivirsen, the “Efficacy against multidrug resistant mutants” value [5] is given as “effective against such mutants”.
